Laboratory results published in article PMC7982320 (Pharmacology Research & Perspectives, 2021).

Experiments:
Type in all cases: in vitro ADME
human BCRP = biological target: T1, human BCRP (Homo sapiens, UniProt Q9UNQ0); test: Transporter substrate assay, MDCKII‐BCRP monolayer bidirectional transport; conditions: BCRP ML; for Maximum net ER: maximum seen at 2.5 µM, n = 3
T1 sequence (Q9UNQ0 1-655): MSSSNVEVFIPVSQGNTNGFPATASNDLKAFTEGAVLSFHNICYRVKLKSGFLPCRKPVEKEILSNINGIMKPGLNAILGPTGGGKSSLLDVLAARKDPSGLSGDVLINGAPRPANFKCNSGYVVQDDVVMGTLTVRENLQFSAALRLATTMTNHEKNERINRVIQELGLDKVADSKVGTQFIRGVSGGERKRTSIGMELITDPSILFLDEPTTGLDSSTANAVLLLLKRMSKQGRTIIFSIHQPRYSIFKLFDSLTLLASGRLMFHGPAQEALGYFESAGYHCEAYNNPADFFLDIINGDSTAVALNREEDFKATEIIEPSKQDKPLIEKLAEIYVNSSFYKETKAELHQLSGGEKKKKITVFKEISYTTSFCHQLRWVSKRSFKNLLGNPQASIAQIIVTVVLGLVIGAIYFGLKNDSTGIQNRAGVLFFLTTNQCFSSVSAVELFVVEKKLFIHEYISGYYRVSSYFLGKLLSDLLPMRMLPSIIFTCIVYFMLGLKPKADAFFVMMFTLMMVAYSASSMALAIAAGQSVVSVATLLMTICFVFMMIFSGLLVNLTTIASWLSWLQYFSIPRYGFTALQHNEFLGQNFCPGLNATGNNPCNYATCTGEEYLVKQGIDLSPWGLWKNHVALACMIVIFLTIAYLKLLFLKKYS

human MDR1 = human MDR1 (Homo sapiens, UniProt P08183); test: Transporter substrate assay, MDCKII‐MDR1 monolayer bidirectional transport; conditions: MDR1 ML; for Maximum net ER: maximum seen at 1 and 5 µM, n = 3
human MATE1 = biological target: T2, human MATE1 (Homo sapiens, UniProt Q96FL8); test: Uptake transporter substrate assay; conditions: MATE1 UPT; for Maximum fold accumulation over control: maximum seen at 1 µM and 2 min, n = 3
T2 sequence (Q96FL8 1-570): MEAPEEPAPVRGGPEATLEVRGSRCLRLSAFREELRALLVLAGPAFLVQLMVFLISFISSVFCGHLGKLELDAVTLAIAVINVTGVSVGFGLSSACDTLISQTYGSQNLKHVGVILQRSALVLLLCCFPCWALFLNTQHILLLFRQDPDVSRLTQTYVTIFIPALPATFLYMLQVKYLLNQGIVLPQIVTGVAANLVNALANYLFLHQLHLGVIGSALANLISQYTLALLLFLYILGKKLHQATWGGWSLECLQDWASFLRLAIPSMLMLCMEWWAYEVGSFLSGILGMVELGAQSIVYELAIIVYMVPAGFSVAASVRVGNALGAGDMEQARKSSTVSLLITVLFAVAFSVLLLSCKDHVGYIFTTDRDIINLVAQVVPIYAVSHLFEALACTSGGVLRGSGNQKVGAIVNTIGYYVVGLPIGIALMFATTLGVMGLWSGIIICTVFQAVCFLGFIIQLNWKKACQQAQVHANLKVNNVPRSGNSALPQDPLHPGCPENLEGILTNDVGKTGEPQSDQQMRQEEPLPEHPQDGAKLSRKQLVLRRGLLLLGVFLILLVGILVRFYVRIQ

human MATE2‐K = human MATE2‐K (Homo sapiens, UniProt Q86VL8); test: Uptake transporter substrate assay; conditions: MATE2‐K UPT; for Maximum fold accumulation over control: maximum seen at 2.5 µM and 20 min, n = 3
human OATP1B1 = biological target: T3, human OATP1B1 (Homo sapiens, UniProt Q9Y6L6); test: Uptake transporter substrate assay; conditions: OATP1B1 UPT; for Maximum fold accumulation over control: maximum seen at 2.5 µM and 20 min, n = 3
T3 sequence (Q9Y6L6 1-691): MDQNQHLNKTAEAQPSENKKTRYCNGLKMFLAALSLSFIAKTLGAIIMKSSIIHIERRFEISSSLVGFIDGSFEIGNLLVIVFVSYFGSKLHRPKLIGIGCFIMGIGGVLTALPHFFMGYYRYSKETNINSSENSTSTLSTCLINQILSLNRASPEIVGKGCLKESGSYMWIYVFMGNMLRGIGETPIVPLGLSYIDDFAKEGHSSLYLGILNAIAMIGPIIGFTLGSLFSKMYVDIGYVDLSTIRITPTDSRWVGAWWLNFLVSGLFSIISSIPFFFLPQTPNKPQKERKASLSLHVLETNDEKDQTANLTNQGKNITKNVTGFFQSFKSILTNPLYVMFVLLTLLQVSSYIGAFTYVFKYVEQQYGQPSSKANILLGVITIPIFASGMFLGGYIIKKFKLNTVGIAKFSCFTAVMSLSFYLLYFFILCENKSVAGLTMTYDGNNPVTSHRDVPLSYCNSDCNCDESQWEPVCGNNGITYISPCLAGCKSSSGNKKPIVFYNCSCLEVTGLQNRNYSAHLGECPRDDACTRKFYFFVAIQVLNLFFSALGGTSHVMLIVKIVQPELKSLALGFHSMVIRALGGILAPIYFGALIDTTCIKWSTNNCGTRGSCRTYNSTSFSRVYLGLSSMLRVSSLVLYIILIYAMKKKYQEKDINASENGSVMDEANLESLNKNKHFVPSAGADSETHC

human OCT2 = biological target: T4, human OCT2 (Homo sapiens, UniProt O15244); test: Uptake transporter substrate assay; conditions: OCT2 UPT; for Maximum fold accumulation over control: maximum seen at 1 µM and 20 min, n = 3
T4 sequence (O15244 1-555): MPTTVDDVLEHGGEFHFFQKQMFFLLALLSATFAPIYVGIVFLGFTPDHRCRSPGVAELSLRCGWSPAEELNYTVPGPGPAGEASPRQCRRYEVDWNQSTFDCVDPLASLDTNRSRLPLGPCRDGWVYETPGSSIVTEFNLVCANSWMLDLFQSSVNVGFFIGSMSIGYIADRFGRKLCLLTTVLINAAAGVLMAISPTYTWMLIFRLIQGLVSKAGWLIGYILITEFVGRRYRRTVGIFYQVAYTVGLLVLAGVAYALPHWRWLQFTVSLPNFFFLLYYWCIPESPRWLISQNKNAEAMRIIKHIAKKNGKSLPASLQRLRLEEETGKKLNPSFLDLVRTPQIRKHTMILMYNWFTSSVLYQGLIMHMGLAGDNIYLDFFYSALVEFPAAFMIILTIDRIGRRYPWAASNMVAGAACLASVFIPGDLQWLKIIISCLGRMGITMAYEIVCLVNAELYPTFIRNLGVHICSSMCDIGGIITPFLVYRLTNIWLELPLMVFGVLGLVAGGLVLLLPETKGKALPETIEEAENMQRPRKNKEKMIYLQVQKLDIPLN

[1] = listed as 6β‐hydroxy‐21‐desacetyl deflazacort

human MATE2‐K, sequence (Q86VL8 1-566 isoform Q86VL8-3): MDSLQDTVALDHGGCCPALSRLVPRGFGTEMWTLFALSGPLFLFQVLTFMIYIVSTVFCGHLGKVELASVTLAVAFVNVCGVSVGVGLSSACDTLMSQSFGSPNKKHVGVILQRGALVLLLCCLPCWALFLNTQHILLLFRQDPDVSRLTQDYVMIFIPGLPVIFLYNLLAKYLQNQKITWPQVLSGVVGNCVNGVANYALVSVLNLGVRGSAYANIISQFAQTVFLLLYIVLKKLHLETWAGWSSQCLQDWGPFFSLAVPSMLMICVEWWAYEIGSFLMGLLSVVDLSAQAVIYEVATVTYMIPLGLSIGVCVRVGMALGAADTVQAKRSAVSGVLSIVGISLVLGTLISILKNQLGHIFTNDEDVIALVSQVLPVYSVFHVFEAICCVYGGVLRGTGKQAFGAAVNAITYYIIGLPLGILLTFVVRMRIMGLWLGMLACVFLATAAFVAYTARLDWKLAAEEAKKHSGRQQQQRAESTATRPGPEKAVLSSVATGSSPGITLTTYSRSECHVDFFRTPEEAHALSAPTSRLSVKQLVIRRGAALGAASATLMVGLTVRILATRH
human MDR1, sequence (P08183 whole entry): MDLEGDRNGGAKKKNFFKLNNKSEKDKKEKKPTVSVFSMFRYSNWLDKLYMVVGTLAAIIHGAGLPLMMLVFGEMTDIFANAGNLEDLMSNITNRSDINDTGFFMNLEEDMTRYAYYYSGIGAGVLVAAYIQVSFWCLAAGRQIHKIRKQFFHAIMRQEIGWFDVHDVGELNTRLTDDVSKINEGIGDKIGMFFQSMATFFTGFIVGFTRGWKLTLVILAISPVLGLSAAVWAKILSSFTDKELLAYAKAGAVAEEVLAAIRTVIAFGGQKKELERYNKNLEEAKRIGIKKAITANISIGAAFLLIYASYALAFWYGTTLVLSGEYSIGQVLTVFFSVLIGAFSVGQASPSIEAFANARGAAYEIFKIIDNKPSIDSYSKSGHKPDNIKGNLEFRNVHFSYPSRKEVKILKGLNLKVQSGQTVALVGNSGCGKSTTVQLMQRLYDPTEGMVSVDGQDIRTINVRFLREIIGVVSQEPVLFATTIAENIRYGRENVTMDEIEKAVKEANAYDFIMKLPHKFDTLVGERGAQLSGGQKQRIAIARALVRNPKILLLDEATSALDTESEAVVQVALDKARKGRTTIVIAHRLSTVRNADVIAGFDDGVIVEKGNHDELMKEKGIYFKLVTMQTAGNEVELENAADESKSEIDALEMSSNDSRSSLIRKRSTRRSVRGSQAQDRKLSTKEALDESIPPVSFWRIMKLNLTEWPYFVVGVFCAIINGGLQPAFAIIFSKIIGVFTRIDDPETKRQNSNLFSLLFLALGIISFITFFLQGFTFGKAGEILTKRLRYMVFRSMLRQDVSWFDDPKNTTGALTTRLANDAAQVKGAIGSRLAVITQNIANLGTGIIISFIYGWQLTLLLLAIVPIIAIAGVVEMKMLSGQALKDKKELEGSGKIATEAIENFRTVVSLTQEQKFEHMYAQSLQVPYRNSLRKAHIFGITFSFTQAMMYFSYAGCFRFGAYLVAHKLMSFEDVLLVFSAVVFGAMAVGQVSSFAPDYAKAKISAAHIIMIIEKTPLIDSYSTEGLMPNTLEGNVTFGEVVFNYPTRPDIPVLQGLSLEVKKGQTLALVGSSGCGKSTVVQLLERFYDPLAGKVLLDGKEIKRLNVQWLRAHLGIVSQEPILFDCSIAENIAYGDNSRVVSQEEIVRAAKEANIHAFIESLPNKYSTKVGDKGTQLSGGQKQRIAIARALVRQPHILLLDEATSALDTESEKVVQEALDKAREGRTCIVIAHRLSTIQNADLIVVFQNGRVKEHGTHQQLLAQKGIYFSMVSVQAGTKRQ

Row | Compound | Maximum net ER (human BCRP) | Maximum net ER (human MDR1) | Maximum fold accumulation over control (human MATE1) | Maximum fold accumulation over control (human MATE2‐K) | Maximum fold accumulation over control (human OATP1B1) | Maximum fold accumulation over control (human OCT2) | Substrate potential (human BCRP) | Substrate potential (human BCRP; [1]) | Substrate potential (human MDR1) | Substrate potential (human MDR1; [1]) | Substrate potential (human MATE1) | Substrate potential (human MATE1; [1]) | Substrate potential (human MATE2‐K) | Substrate potential (human MATE2‐K; [1]) | Substrate potential (human OATP1B1) | Substrate potential (human OATP1B1; [1]) | Substrate potential (human OCT2) | Substrate potential (human OCT2; [1])
1 | [2’-^14C]-6β-hydroxy-21-desacetyl-deflazacort [^14C‐6β‐OH‐21‐desDFZ] | 0.17 | 0.59 | < 2 fold | < 2 fold | < 2 fold | < 2 fold |  |  |  |  |  |  |  |  |  |  |  | 
2 | CC1=N[C@]2(C(=O)CO)[C@@H](C[C@H]3[C@@H]4C[C@@H](O)C5=CC(=O)C=C[C@]5(C)[C@H]4[C@@H](O)C[C@@]32C)O1 [6β‐OH‐21‐desDFZ, 6β‐Hydroxy‐21‐desacetyl deflazacort] | 0.17 at 2.5 µM | 0.59 at 1 and 5 µM | 1.18 at 1 µM and 2 min fold | 1.08 at 2.5 µM and 20 min fold | 1.02 at 2.5 µM and 20 min fold | 1.32 at 1 µM and 20 min fold | not a substrate | No | not a substrate | No | not a substrate | No | not a substrate | No | not a substrate | No | not a substrate | No
